Data taken from ChEMBL document CHEMBL5653615 (J Biol Chem, 2013).

Assays:
[1] = target: T1, Serine/threonine-protein kinase BRSK2 (Homo sapiens) (UniProt Q8IWQ3); assay: Inhibition of human BRSK2 at 18.6 nM by HotSpot assay relative to control
T1 sequence (whole entry): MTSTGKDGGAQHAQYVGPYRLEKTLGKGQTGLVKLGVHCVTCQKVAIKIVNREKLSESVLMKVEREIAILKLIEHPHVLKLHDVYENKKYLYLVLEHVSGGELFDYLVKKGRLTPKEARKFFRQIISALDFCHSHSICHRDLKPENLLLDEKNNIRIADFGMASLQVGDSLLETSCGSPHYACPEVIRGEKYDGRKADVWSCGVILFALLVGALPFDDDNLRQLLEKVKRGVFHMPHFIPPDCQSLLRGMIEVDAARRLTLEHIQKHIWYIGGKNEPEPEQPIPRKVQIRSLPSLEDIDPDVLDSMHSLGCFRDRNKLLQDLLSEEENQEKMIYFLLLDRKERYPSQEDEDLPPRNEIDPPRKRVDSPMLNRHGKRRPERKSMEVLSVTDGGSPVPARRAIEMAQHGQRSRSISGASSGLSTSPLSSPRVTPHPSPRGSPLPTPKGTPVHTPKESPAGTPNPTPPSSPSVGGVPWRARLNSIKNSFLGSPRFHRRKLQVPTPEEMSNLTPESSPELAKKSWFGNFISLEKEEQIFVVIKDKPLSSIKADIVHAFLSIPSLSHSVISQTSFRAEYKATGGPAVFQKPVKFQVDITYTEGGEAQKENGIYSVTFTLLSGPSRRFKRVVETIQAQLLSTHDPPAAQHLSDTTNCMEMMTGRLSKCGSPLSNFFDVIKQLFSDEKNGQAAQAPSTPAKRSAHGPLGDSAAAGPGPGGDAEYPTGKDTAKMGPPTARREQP

[2] = target: Casein kinase I isoform gamma-3 (Homo sapiens) (UniProt Q9Y6M4); assay: Inhibition of human CK1g3 at 18.6 nM by HotSpot assay relative to control
[3] = target: Tyrosine-protein kinase Lyn (Homo sapiens) (UniProt P07948); assay: Inhibition of human LYN at 18.6 nM by HotSpot assay relative to control
[4] = target: T2, Serine/threonine-protein kinase ULK2 (Homo sapiens) (UniProt Q8IYT8); assay: Inhibition of human ULK2 at 18.6 nM by HotSpot assay relative to control
T2 sequence (whole entry): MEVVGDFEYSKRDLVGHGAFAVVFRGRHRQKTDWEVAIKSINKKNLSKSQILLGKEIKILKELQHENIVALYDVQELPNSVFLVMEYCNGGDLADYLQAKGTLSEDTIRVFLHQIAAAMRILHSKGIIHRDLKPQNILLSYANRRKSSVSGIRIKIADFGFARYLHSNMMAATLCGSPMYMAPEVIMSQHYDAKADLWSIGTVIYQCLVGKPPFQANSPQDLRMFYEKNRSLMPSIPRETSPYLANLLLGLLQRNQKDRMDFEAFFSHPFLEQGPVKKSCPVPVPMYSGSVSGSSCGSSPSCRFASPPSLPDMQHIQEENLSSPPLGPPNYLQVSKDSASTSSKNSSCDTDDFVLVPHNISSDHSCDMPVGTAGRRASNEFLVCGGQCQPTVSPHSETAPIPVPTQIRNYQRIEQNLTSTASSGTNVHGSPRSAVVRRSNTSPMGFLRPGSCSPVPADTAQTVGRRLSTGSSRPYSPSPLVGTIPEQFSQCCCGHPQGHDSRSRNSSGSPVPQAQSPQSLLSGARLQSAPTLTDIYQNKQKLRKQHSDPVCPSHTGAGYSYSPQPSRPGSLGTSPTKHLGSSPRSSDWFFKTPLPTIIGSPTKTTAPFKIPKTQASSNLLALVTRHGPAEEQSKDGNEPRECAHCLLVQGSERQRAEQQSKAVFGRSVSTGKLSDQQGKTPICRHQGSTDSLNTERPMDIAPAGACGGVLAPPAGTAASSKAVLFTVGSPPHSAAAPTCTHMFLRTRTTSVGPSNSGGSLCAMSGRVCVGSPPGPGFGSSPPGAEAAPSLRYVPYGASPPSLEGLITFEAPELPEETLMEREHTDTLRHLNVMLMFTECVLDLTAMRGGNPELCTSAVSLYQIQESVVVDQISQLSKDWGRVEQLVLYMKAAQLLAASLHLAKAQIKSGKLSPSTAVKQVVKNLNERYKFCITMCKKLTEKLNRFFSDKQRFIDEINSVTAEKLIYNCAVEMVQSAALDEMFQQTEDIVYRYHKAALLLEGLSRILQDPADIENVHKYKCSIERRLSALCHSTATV

[5] = target: T3, Serine/threonine-protein kinase 3 (Homo sapiens) (UniProt Q13188); assay: Inhibition of human STK3 at 1.82 nM by HotSpot assay relative to control
T3 sequence (whole entry): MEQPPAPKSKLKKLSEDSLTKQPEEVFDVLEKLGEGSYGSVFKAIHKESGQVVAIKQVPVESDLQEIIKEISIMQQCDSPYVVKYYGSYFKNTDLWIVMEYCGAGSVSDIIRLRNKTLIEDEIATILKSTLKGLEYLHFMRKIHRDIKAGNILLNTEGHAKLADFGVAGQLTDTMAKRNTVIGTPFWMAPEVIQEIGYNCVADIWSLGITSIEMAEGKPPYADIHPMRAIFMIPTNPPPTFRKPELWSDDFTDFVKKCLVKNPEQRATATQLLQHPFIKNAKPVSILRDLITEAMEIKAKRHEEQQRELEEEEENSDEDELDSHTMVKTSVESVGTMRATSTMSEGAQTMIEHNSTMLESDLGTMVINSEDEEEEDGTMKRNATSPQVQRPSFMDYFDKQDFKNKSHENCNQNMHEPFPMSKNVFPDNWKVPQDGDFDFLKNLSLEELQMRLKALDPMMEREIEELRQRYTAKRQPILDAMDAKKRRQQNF

Tyrosine-protein kinase Lyn (Homo sapiens), sequence (P07948 2-512 limits assumed): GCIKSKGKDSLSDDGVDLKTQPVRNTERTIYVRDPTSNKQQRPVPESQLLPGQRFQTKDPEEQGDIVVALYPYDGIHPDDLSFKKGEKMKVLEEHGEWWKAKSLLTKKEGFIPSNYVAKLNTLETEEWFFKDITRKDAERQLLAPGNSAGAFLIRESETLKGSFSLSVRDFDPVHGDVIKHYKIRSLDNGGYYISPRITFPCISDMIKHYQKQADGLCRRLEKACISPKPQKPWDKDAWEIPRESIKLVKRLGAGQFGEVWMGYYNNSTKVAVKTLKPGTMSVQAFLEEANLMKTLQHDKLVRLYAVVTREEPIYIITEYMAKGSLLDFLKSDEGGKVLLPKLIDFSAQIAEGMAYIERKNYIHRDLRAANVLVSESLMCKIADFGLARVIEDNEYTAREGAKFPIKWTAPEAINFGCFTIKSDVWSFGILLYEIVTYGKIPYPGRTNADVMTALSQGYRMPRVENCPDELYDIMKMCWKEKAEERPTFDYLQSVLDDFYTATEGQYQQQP
Casein kinase I isoform gamma-3 (Homo sapiens), sequence (Q9Y6M4 whole entry, looked up, canonical isoform): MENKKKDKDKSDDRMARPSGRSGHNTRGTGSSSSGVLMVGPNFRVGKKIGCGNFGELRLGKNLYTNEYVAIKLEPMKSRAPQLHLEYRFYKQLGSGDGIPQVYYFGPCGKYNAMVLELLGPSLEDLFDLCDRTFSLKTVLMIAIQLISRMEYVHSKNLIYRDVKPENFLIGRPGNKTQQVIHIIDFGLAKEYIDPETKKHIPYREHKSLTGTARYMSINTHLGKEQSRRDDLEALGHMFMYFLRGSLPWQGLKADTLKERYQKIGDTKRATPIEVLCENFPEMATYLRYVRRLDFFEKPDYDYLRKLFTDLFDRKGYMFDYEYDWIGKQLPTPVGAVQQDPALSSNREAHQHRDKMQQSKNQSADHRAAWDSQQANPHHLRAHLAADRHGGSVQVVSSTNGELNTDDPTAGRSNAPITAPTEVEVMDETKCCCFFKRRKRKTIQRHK

Row | inhibition [1] [%] | inhibition [2] [%] | inhibition [3] [%] | inhibition [4] [%] | inhibition [5] [%] | SMILES
1 | -4.68 | 1.42 | -0.99 | 2.12 | – | C[C@]1(O)C[C@@H](c2nc(-c3ccc4ccc(-c5ccccc5)nc4c3)c3c(N)nccn32)C1
2 | – | – | – | – | 1.56 | C[C@@]1(C(=O)Nc2ccc(F)nc2)CCCN1c1nc(Nc2cc(C3CC3)n[nH]2)c2cccn2n1
